Assay results: ChEMBL document CHEMBL4346732, “Inhibition of neutral lipid synthesis by avarols from a marine sponge” (Bioorg Med Chem Lett, 2019)

Experiments:
[1] = Inhibition of DGAT-mediated oleic acid-induced [14C]neutral lipid synthesis in CHOK1 cells after 6 hrs using [14C]oleic acid by […]; format: cell-based; conditions: Cricetulus griseus, CHO-K1, 6 h
[2] = Inhibition of SOAT-mediated oleic acid-induced [14C]cholesterol ester accumulation in CHOK1 cells after 6 hrs using [14C]oleic acid by […]; format: cell-based; conditions: Cricetulus griseus, CHO-K1, 6 h
CHO-K1 = test: Cytotoxicity against CHOK1 cells assessed as reduction in cell viability; format: cell-based; conditions: Cricetulus griseus
[3] = target: T1, Sterol O-acyltransferase 2 (Chlorocebus aethiops, UniProt O77759); test: Inhibition of African green monkey SOAT2 expressed in CHO cells using [1-14C]oleic acid incubated for 6 hrs by TLC based method; format: cell-based
T1 sequence (O77759 whole entry): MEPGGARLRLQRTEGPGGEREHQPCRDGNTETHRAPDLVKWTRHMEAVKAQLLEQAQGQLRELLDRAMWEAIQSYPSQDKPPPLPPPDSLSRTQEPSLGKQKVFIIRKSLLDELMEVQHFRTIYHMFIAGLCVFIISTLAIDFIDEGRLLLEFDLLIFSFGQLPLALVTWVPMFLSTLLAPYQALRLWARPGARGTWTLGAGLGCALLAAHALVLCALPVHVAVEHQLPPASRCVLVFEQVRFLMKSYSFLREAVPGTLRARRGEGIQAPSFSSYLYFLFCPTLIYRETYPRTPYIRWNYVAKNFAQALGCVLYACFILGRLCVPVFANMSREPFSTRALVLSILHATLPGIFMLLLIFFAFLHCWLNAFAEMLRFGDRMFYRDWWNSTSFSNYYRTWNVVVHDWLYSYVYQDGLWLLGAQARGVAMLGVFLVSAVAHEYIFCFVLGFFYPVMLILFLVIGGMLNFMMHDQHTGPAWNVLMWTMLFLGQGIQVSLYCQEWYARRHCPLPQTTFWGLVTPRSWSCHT

[4] = Inhibition of DGAT in CHOK1 cell microsomal fraction using [14C]palmitoyl-CoA as substrate measured after 15 mins TLC based method; set-up: species or system Cricetulus griseus
[5] = target: T2, Sterol O-acyltransferase 1 (Cricetulus griseus, UniProt Q60457); test: Inhibition of SOAT1 in CHO cell microsomal fraction using [1-14C]oleoyl-CoA as substrate measured after 5 mins by TLC based method
T2 sequence (Q60457 whole entry): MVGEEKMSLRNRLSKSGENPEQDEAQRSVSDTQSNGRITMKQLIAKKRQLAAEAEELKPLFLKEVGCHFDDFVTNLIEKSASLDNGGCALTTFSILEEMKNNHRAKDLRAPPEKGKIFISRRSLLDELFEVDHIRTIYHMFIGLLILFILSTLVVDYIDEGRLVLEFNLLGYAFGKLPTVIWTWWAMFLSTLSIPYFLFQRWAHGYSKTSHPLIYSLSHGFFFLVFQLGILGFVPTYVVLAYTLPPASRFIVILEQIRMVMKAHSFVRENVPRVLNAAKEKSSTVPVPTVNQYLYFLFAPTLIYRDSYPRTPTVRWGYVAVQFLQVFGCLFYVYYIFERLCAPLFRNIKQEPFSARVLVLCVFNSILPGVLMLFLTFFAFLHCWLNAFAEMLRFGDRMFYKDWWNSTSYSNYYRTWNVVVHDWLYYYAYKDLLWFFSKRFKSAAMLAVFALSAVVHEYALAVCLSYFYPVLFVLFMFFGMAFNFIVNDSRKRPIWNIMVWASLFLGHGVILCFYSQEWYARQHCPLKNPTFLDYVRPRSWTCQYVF

[6] = Inhibition of SOAT2 in CHO cell microsomal fraction using [1-14C]oleoyl-CoA as substrate measured after 5 mins by TLC based method; set-up: species or system Cricetulus griseus
[7] = target: T3, Sterol O-acyltransferase 1 (Chlorocebus aethiops, UniProt O77760); test: Inhibition of African green monkey SOAT1 expressed in CHO cells using [1-14C]oleic acid incubated for 6 hrs by TLC based method; format: cell-based
T3 sequence (O77760 whole entry): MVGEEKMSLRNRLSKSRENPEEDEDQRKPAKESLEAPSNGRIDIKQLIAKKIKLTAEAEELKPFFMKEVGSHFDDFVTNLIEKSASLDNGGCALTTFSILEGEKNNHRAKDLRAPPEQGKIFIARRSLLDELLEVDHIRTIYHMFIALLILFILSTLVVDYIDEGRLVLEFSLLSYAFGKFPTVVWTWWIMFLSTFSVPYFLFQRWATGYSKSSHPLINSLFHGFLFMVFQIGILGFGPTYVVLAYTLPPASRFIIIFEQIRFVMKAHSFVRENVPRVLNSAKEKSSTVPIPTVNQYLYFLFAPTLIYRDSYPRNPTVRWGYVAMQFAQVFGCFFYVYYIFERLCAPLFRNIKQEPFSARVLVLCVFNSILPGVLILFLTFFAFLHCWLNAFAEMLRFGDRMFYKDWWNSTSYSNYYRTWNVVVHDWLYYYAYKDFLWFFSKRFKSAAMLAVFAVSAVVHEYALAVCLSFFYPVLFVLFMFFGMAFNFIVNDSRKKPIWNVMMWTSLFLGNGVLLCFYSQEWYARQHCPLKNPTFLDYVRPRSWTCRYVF

[8] = Inhibition of SOAT in CHOK1 cell microsomal fraction using [1-14C]oleoyl-CoA as substrate measured after 5 mins by TLC based method; set-up: species or system Cricetulus griseus

Row | Structure (SMILES) | IC50 [1] | IC50 [2] | IC50 (CHO-K1) | IC50 [3] | IC50 [4] | IC50 [5] | IC50 [6] | IC50 [7] | IC50 [8]
1 | CC1=CCC[C@H]2[C@]3(C)Cc4cc(O)ccc4O[C@]3(C)CC[C@]12C | > 31.1 µM | 13.9 µM | > 31.1 µM |  |  |  |  |  | 
2 | CC(=O)Oc1ccc(O)c(C[C@]2(C)[C@@H](C)CC[C@]3(C)C(C)=CCC[C@@H]23)c1 | > 27.3 µM | 23.1 µM | > 27.3 µM |  |  |  |  |  | 
3 | C=C1CCC[C@H]2[C@](C)(Cc3cc(OC)ccc3O)[C@@H](C)CC[C@]12C | > 29.6 µM | 10.4 µM | > 29.6 µM |  |  |  |  |  | 
4 | COc1ccc(O)c(C[C@]2(C)[C@@H](C)CC[C@]3(C)C(C)=CCC[C@@H]23)c1 | > 29.6 µM | 11.4 µM | > 29.6 µM |  |  |  |  |  | 
5 | C=C1CCC[C@H]2[C@](C)(Cc3cc(O)ccc3OC(C)=O)[C@@H](C)CC[C@]12C | > 27.3 µM | 11.9 µM | > 27.3 µM |  |  |  |  |  | 
6 | CC(=O)Oc1ccc(OC(C)=O)c(C[C@]2(C)[C@@H](C)CC[C@]3(C)C(C)=CCC[C@@H]23)c1 | 23.5 µM | 16.5 µM | > 24.4 µM |  |  |  |  |  | 
7 | C=C1CCC[C@H]2[C@](C)(Cc3cc(OC(=O)CC)ccc3OC(=O)CC)[C@@H](C)CC[C@]12C | > 22.8 µM | 11 µM | > 22.8 µM |  |  |  |  |  | 
8 | C=C1CCC[C@H]2[C@](C)(Cc3cc(O)ccc3O)[C@@H](C)CC[C@]12C | 14.2 µM | 11 µM | > 30.9 µM | 19.1 µM | 44.3 µM | 32 µM | 14 µM | 19.2 µM | 15.6 µM
9 | CCC(=O)Oc1ccc(OC(=O)CC)c(C[C@]2(C)[C@@H](C)CC[C@]3(C)C(C)=CCC[C@@H]23)c1 | 13.5 µM | 16.7 µM | > 22.8 µM |  |  |  |  |  | 
10 | C=C1CCC[C@H]2[C@](C)(Cc3cc(OC(C)=O)ccc3OC(C)=O)[C@@H](C)CC[C@]12C | > 24.4 µM | 10.8 µM | > 24.4 µM |  |  |  |  |  | 
11 | CC1=CCC[C@H]2[C@](C)(CC3=CC(=O)C=C(N)C3=O)[C@@H](C)CC[C@]12C | 27.5 µM | 13.2 µM | > 30.9 µM |  |  |  |  |  | 
12 | C=C1CCC[C@H]2[C@](C)(Cc3cc(OC(C)=O)ccc3O)[C@@H](C)CC[C@]12C | > 27.3 µM | 16 µM | > 27.3 µM |  |  |  |  |  | 
13 | CC(=O)Oc1ccc(O)cc1C[C@]1(C)[C@@H](C)CC[C@]2(C)C(C)=CCC[C@@H]12 | > 27.3 µM | 13.7 µM | > 27.3 µM |  |  |  |  |  | 
14 | CC1=CCC[C@H]2[C@](C)(Cc3cc(O)ccc3O)[C@@H](C)CC[C@]12C [AVAROL] | 6.8 µM | 5.74 µM | > 30.9 µM | 14.8 µM | 20 µM | 12 µM | 8.1 µM | 14.2 µM | 7.31 µM
